Data on one substance can be found in patent publication US20150342165A1, “HUMANIZED MOUSE AND METHODS OF USING THE SAME” (City of Hope, priority 2014, published 2015).

This test concerns GM-HSPC and their progeny. The following applies: for Enrichment of frequency of CD45+/GFP+ cells in spleen and bone marrow: necropsy 11 weeks after transplantation. The method, then:
All animals except control mice received 20 mg/kg O^6BG (Sigma-Aldrich, St. Louis, Mo.) followed by 5 mg/kg BCNU (Sigma-Aldrich, St. Louis, Mo.) mouse 1.5 hour later via IP injection. Drug doses were administered at either at the 7th and 8th or 7th, 8th, and 9th weeks post-transplantation. O^6BG was prepared in 35% PEG-400 (Sigma-Aldrich, St. Louis, Mo.) and 60% injectable saline.
Lentiviral vector was produced by calcium phosphate precipitation in HEK293T cells as previously described by Li M J et al. (2005). CD34+ cells were pre-stimulated overnight in SFT6. Lentiviral transduction was conducted at 1×10^6 cells/mL on Retronectin™ (Takara, Otsu-Shiga Japan)-coated non-tissue culture T-75 flask for 24 h in the presence of […] rapamycin (Sigma-Aldrich, St. Louis, Mo.). Lentivirus and rapamycin were removed and cells were washed once before being resuspended for transplantation in 0.9% NaCl saline solution with Fc/IL-7 as described above.
Mice were necropsied at 16 or 25 weeks post transplantation for analysis of engraftment. Single cell suspensions of bone marrow (femurs) and spleen were prepared by mechanical dissociation and red cells lysed using ACK lysis Buffer (Sigma-Aldrich, St. Louis, Mo.). All cell suspensions were pre-treated with human immunoglobulin (GammaGard, Baxter Healthcare Corp. Deerfield, Ill.) for 30 minutes to block nonspecific antibody staining. Cell suspensions were stained with a human pan-leukocyte antibody to CD45-PC5 (BioLegendR, San Diego, Calif.), and lineage specific antihuman, CD3-ECD, CD4-APC, CD14-APC-Alexa-750, CD19-PE (Invitrogen, Carlsbad, Calif.), and CD8β-PC5 (Beckman Coulter, Brea, Calif.), for 20 minutes and washed 2 times with 1 mL of PBS containing 0.1% BSA (Sigma-Aldrich, St Louis, Mo.). BM cells were stained with antibodies to human CD45-PC5, CD34-PC7, CD45-ECD (Beckman Coulter, Brea, Calif.), CD33-PC5 (BD Biosciences, San Diego, Calif.), CD19-PE, and CD14-APC-Alexa750 (Invitrogen, Carlsbad, Calif.) for 20 minutes and washed 2 times with 1 mL of PBS containing 0.1% BSA. To establish analytical gates and background staining, bone marrow and spleen samples from 2-3 mice that received no human cells mice were stained with the same antibody panel. Samples were analyzed using a Gallios flow cytometer (Beckman Coulter, Hialeah, Fla.) and data analyzed with FCS Express software (De Novo Software, Los Angeles, Calif.).
Lentiviral vectors expressing unique combinations of small anti-HIV RNAs expressed from a naturally occurring micro RNA cluster (MCM-7) are known. See Chung J, et al. Endogenous MCMI microRNA cluster as a novel platform to multiplex small interfering and nucleolar RNAs for combinational HIV-1 gene therapy. Human gene therapy. 2012; 23:1200-1208. […] CD34+ HSPC were transduced with this vector and used to transplant NSG mice as described in materials and methods. Animals were treated with O^6BG and BCNU at weeks 7 and 8 (2× treatment) or weeks 7, 8 and 9 (3× treatment) following transplantation. Two weeks later (11 weeks following transplantation) animals were necropsied and the level of engraftment of the spleen and bone marrow were determined.

Where [1] appears, read: second experiment, different donor, 7 weeks recovery with weekly Fc/IL-7.

Like-named read-outs stand apart in the source and are kept apart here.

Consider “O^6-benzylguanine; bis-chloronitrosourea [O^6BG/BCNU]”, for which the “Enrichment in GM progeny in bone marrow and spleen” value (2-3 rounds of treatment) is given as 4-8 fold. Besides, the “Engraftment of spleen and bone marrow with human cells relative to untreated control” value (2× and 3× treated animals, p<0.0001) is “reduced”. Also, for the setting “2× treatment (weeks 7 and 8)”, the “Enrichment of frequency of CD45+/GFP+ cells in spleen and bone marrow” value amounted to 10 fold. Besides, the “Enrichment of frequency of CD45+/GFP+ cells in spleen and bone marrow” value (3× treatment (weeks 7, 8 and 9)) was 15 fold. Besides, under setting [1], the “CD45+ cells in bone marrow and spleen” value was “depletion”; the “Enrichment of CD3+/CD4+/GFP+ T-cells” value is reported as “no significant enrichment”; the “Frequency of CD45+/GFP+ human cells and CD14+/CD4+/GFP+ monocytes” value was “concomitant increase”. Also, the “Increase of CD4+/CD14+/GFP+ monocytes in the spleens” value (three treatments) was 3 fold. For the same substance, the “Increase of average frequency of CD3+/CD4+ T-cells in the spleen” value (treatment performed three times) was found to be 3 fold.
